Several values for one entry are separate records, joined by “and”; a condition that tells them apart may be missing. Equal entries are not always repeated. Where two headings read alike, the source gives them in different places.
Key:
[1] = target: hERG (KV11.1) (Homo sapiens, UniProt Q12809); assay: Automated planar patch-clamp (APC, QPatch II 48), voltage-ladder protocol, CHO cells stably expressing human hERG; settings: for hERG channel Efficacy (max reduction in Gmax) Gmin: 0 = complete reduction
Excerpt: To assess the effect of a large set of SCRAs on hERG (see SI Table I and SI Fig. S1 for a list of the 36 included SCRAs and corresponding structures), we used the automated planar patch-clamp (APC) technique on mammalian Chinese hamster ovary (CHO) cells stably expressing human hERG. […] We employed a voltage-ladder protocol to obtain information on SCRA effects on the channel’s voltage dependence of activation (V50) and maximal conductance (Gmax) (both determined from Boltzmann fits of the instantaneous tail currents; see Methods for details).
Stably expressing cell lines “CHO-hERG DUO” (here referred to as hERG; gene: KCNH2) and “CHO-KVLQT1/mink” (here referred to as KV7.1/KCNE1; gene: KCNQ1/KCNE1), (B’SYS GmBH, Witterswil, Switzerland) were used to study whole-cell K^+ currents on a QPatch II 48 APC system (Sophion Bioscience A/S, Ballerup, Denmark). Cell culture and passaging were performed in accordance with standard operating procedures. Cells were harvested in serum-free medium with Detachin^TM (Genlantis, CA, USA) immediately prior to experiments. For MPC on transient cell lines, CHO-K1 CCL-61 cells (ATCC, Manassas, VA, USA) were cultured in Ham’s F-12 medium supplemented with 10% fetal bovine serum (FBS) and 100 U/mL penicillin–100 µg/mL streptomycin (Gibco, Thermo Fisher Scientific, Waltham, MA, USA). Transfection was carried out using JetOPTIMUS® reagent (Polyplus, Strasbourg, France) according to the manufacturer’s protocol. Briefly, 80,000 cells were seeded per well in a 12-well plate and transfected with 300 ng of pcDNA3-GFP plasmid, 700 ng of pcDNA3-hERG plasmid with either the wild-type or mutant channels (S624A, S649A, or Y652A), and […] of JetOPTIMUS. After 8 h, cells were detached and reseeded at a density of 30,000 cells per well onto several poly-D-lysine-coated glass coverslips placed in a 12-well plate. For the CB1 receptor activity assay, the AequoScreen® recombinant Chinese hamster ovary (CHO) K1 cell line, stably expressing the human CB1 receptor (ES-110-A), was used (Revvity, Sollentuna, Sweden).
Automated patch-clamp recordings were performed at 22 °C. Freshly harvested cell suspensions (2–3 million cells/mL) were prepared for experiments by the QPatch II 48 automated cell preparation unit. Cells were centrifuged for 150 s at 150 × g and washed twice with the extracellular recording solution. Cells were handled by the integrated pipetting robot and added to the 48 experiment sites on the planar patch-clamp consumable QPlate. Each experiment site contained an individual pair of recording electrodes and a silicon/glass biochip embedded in the flow channels. Single-cell patch recordings (n = 1 is defined as one single-cell patch) and population patch recordings (up to 10 cells per well, n = 1 is defined as one population patch) were performed for hERG and for KV7.1/KCNE1, respectively. Cells were applied, positioned and sealed to the patch holes by a mild suction protocol; whole-cell access was then achieved by a stronger suction pulse.
The intracellular solution contained (in mM): 100 KCl, 4.3 CaCl2, 1.4 MgCl2, 25/10 KOH/EGTA, 24 KF, 10 HEPES, and 4 Mg-ATP (hERG) or 4 Na-ATP (KV7.1/KCNE1). […] The compounds were pre-diluted in DMSO, and the final concentration of DMSO (0.3%) was equal in all recording solutions to control for vehicle effects. The compounds made no contact with plastics following dilution in extracellular solution.
An overview of experimental conditions is provided in SI Table VII, Square voltage pulses in a voltage ladder protocol were used to study current/voltage (I(V)) relationships. Each voltage protocol was first run three times in the presence of vehicle (extracellular solution supplemented with 0.3% DMSO), the 3rd serving as the baseline. Voltage protocols were repeated in the presence of 4 cumulatively rising concentrations of test compound, followed by application of vehicle for recovery.

[2] = target: T1, human CB1 receptor (Homo sapiens, UniProt P21554); assay: AequoScreen intracellular calcium release assay, CHO-K1 cells stably expressing CB1; type: cell-based; settings: for CB1 receptor Efficacy Emax: normalized to maximum of JWH-018
T1 construct: host or cells: CHO-K1 stably expressing CB1, apoaequorin and Gα16

[3] = target: KV7.1/KCNE1 (Homo sapiens, UniProt P51787); assay: Automated patch-clamp (APC, population patch), CHO cells stably expressing human KV7.1/KCNE1; type: cell-based; settings: for KV7.1/KCNE1 channel Efficacy (max reduction in Gmax) Gmin, marked *: * Greatest efficacy achieved with a concentration between 10 and 30 µM (no fit); for KV7.1/KCNE1 channel Efficacy (max reduction in Gmax) Gmin: 1 = no reduction of Gmax, 0 = complete reduction
Method: Both hERG and KV7.1/KCNE1 contribute to cardiomyocyte repolarization (Fig. 1g). Inhibition of KV7.1/KCNE1 alone can be proarrhythmic. Moreover, under conditions with impaired hERG function, upregulation of KV7.1/KCNE1 has been proposed to partially compensate for the loss of hERG [38, 39]. […] To assess if SCRAs also affect KV7.1/KCNE1, we used mammalian CHO cells stably expressing human KV7.1/KCNE1. […] At 10 µM, 7 of the SCRAs caused a significant positive shift in V50 (Fig. 5e), with the largest shift induced by MDMB-[…] (ΔV50 = +10.3 ± 1.6 mV).
Automated patch-clamp recordings were performed at 22 °C.
For the KV7.1/KCNE1 voltage ladder protocol (SI Table VII) the solutions were present for 60 s before recording started. KV7.1/KCNE1 cells were kept at a holding voltage of −90 mV, with brief hyperpolarizing steps to −100 mV for 540 ms (to calculate ohmic leakage). […] The time between compound application and the first voltage protocol was 60 s. Time between sweeps was 15 s. The voltage ladder protocol was executed every 220 s.
For Gmax (rel.), N was set to –1. For ΔV50, N was set to 1.

[4] = best fit, 1 = no reduction of Gmax, APC, 22 °C
[5] = read-out: hERG channel Potency IC50 (Gmax reduction), APC, 22 °C, best fit
[6] = normalized to median EC50 of JWH-018, n ≥ 3 (JWH-030 n = 2), read-out: CB1 receptor Potency EC50
[7] = CB1 receptor Potency EC50, normalized to median EC50 of JWH-018, n ≥ 3 (JWH-030 n = 2)
[8] = APC, best fit, read-out: KV7.1/KCNE1 channel Potency IC50 (Gmax reduction)

T1 sequence (P21554 whole entry): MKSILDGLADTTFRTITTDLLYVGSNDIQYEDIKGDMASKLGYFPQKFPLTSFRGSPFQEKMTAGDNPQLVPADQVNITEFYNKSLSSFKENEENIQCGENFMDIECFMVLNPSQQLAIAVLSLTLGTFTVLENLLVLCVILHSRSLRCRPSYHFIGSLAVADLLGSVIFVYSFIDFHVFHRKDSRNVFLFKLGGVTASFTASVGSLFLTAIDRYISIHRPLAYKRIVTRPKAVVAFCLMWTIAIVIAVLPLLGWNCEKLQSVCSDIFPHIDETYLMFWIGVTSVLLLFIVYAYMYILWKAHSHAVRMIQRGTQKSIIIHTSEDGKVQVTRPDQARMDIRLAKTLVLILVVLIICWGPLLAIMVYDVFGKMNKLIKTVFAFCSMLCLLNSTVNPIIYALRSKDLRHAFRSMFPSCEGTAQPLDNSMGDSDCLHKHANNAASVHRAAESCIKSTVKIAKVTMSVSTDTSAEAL
Chain of KV7.1/KCNE1 (P51787 whole entry): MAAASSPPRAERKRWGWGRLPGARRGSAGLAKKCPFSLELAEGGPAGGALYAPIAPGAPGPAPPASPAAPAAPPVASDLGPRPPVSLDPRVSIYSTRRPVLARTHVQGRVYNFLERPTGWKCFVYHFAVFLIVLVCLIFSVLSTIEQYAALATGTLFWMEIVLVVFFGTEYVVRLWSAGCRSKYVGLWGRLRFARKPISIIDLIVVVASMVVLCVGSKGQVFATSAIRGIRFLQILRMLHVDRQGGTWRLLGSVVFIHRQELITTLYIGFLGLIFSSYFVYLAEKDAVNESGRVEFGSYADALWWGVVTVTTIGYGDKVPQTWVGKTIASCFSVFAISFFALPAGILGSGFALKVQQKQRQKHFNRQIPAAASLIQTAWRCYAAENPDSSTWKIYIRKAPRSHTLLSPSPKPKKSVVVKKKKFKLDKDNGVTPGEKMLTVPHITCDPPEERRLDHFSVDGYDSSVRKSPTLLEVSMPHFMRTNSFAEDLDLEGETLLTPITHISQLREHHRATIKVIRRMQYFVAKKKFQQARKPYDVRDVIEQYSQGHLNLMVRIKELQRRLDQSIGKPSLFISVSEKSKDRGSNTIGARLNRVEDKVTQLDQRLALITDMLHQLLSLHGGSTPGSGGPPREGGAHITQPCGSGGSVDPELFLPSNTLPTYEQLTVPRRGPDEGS
Chain of hERG (KV11.1) (Q12809 whole entry): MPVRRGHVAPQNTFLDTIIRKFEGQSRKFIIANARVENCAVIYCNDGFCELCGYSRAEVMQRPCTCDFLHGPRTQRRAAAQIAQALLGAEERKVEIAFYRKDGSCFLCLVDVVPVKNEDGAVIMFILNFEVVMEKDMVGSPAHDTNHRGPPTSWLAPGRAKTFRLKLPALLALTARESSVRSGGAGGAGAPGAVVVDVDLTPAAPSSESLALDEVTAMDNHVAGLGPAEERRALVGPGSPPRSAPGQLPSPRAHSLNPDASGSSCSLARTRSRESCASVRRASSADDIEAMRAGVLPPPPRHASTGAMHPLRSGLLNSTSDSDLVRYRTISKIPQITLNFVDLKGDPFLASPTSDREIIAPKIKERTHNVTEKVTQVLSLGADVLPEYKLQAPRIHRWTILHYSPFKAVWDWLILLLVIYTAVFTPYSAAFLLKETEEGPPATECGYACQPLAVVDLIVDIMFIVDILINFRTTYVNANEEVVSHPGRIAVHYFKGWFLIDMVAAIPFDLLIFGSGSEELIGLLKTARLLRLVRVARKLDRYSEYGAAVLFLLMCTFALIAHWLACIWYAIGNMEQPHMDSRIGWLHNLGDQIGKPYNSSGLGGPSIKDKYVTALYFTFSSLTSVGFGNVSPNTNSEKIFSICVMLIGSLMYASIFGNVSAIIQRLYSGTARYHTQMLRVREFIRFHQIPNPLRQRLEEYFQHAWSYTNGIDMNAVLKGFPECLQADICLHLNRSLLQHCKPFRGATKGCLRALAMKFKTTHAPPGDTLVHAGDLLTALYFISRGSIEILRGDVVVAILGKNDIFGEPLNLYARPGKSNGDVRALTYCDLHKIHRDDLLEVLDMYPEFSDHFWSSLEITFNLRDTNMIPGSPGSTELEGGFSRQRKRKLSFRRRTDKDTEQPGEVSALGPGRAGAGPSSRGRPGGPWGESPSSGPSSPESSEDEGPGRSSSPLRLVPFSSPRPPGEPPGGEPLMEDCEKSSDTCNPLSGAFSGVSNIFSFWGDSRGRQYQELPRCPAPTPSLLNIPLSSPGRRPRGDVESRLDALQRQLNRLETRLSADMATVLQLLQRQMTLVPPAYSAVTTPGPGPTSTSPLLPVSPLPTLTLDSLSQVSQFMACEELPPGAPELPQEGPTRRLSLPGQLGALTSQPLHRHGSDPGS

Structure (SMILES)	hERG channel Efficacy (max reduction in Gmax) Gmin [1, 4]	IC50 [1, 5] [µM]	CB1 receptor Efficacy Emax ([2]; n ≥ 3 (JWH-030 n = 2)) [% JWH-018]	EC50 [2, 6] [nM]	KV7.1/KCNE1 channel Efficacy (max reduction in Gmax) Gmin, marked * [3]	IC50 [1] [µM]	EC50 [2, 7]	KV7.1/KCNE1 channel Efficacy (max reduction in Gmax) Gmin ([3]; best fit)	also measured
C=CCCCn1nc(C(=O)N[C@H](C(=O)OC)C(C)(C)C)c2ccccc21 [MDMB-4en-PINACA]	0.27	14.6	109	16.7	0.57	–	–	–	–
CCCCCn1cc(C(=O)c2cccc3ccccc23)c2ccccc21 [JWH-018]	0.57	–	100	–	1.01	17.3	35 nM	–	EC50 ([2]; median CB1 EC50 value, median from 139 independent experiments run over many years): 35 nM; EC50 ([2]; variability of CB1 EC50 over time, range over 139 independent experiments): 13.7 to 51.9 nM
N#CCCCCn1nc(C(=O)NCc2ccccc2)c2ccccc21 [Benzyl-4CN-BUTINACA]	0.00	17.3	109	408	0.73	–	–	–	–
O=C(c1cccc2ccccc12)c1nn(CCCCCF)c2ccccc12 [THJ-2201]	0.73	2.04	92.8	45.6	–	–	–	0.59	effect on KV7.1/KCNE1 (in words) ([3]; APC): well-defined concentration–response relationships for both effects; IC50 [3, 8]: 4.7 µM
Cc1ccc(S(=O)(=O)n2nc(C(=O)NC(C)(C)c3ccccc3)c3ccccc32)cc1 [Cumyl-TsINACA]	–	–	106	–	1.07	–	–	–	hERG channel Efficacy (max reduction in Gmax) Gmin, marked * ([1]; * Greatest efficacy achieved with a concentration between 10 and 30 µM (no fit), 1 = no reduction of Gmax): 0.94; effect on Gmax of hERG (in words) ([1]; APC concentration-response, 1.11 to 30 µM): non-inhibitor; EC50 ([2]; read-out: CB1 receptor Potency EC50): 166 nM
COC(=O)C(NC(=O)c1nn(CC2CCCCC2)c2ccccc12)C(C)(C)C (centres unmarked) [MDMB-[…]]	0.60	–	106	–	0.52	12.4	1.4 nM	–	ΔV50 of KV7.1/KCNE1 ([3]; 10 µM): +10.3 ± 1.6 mV
CC(C)(C)C(NC(=O)c1cn(CC2CCCCC2)c2ccccc12)C(N)=O (centres unmarked) [ADB-CHMICA]	0.48	5.2	110	15.7	–	–	–	0.4	IC50 [3, 8]: 13.4 µM
CC(C)(NC(=O)c1nn(CCCCCF)c2ccccc12)c1ccccc1 [5F-Cumyl-PINACA]	0.00	–	112	–	–	15.5	2.23 nM and 2.2 nM	0.13	IC50 [3]: 43.5 µM; effect on KV7.1/KCNE1 (in words) ([3]; APC): well-defined concentration–response relationships for both effects
COC(=O)[C@@H](NC(=O)c1n[nH]c2ccc(Br)cc12)C(C)(C)C [MDMB-5'Br-INACA]	0.57	25.3	110	849	0.74	–	–	–	–
